Source: patent publication US8809368B2, “Compounds affecting gap junction activity” (Kansas State University Research Foundation, priority 2006, dated 2014)

Experiments:
T47D cells [1] = assay: Gap junction activity (GJIC), flow cytometry of dye coupling, T47D cells; assay type: cell-based, human
Description: FIG. 4(A) MDA-MB-453 and (B) T47D cells were treated with low (500 nM) and high (10 μM) concentrations of PQs for 24 hours. Monolayers of acceptor cell population were grown on 25-cm flasks in the presence of Vibrant DiD. Vybrant DiD in acceptor cells is not able to pass through the gap junctions because of its hydrophobic property. Single cell suspensions of donor treated cells were prepared, labeled with 0.05 μg/ml calcein-AM, incubated at 37 C for 5 minutes. Quantification of dye coupling between the donor and acceptor cells was assessed by dual-excitation flow cytometry. […] Cells treated with 10 μM PQ3 have approximately 40-50% decrease in gap junction activity compared control or DMSO.

T47D cells [2] = assay: Transepithelial electrical resistance (TEER), T47D monolayers; assay type: cell-based, human; conditions: 100, 200 or 500 nM, 48 hours, compared to control
Description: T47D cells were treated with 0, 100, 200, and 500 nM PQ1 for 48 hours. TEER assay was performed as described herein. TEER values of each treatment in KΩ/cm^2 were converted to relative percent of control.
Measurement of transepithelial electrical resistance. Cells were grown to 100% confluency on a 12-well transwell (BD Biosciences, San Jose, Calif.) and treated with 0, 100, 200, and 500 nM PQ1 for 48 hours. Transepithelial electrical resistance (TEER) of the T47D monolayers was measured by a high-precision. Resulting voltages were recorded with the aid of a differential amplifier with a high input resistance. Data were corrected for well area (given in Ω·cm^2).

Cx26 = assay: Western blot of Cx26 in T47D cells; assay type: cell-based, human; conditions: 10, 100, 200 and 500 nM, 24 hours
Description: T47D cells were dosed with PQ1 for 24 hours. The Western blot analysis was performed as described in Materials and Methods. Whole cell extract was analyzed for Cx 43, Cx32, and Cx26. Experiment was performed at least three times.
Furthermore, whole cell extract of PQ1 treatment was analyzed for the changes in gap junctional proteins, connexins. Cells were treated with 10, 100, 200, and 500 nM PQ1 for 24 hours. Western blot analysis was performed against Cx26, Cx32, and Cx43 (FIG. 17). […] Anti-tubulin was used as a loading control.
Western Blot Analysis. Cells were grown in serum supplemented RPMI media until they were 90% confluent in 75 cm^2 flasks. Cells were kept in starving media containing phenol red-free DMEM with 5% charcoal dextran stripped serum, overnight. Cells were dosed with 0, 10, 100, 200 and 500 nM of PQ1 for 24 hours. Cells were washed three times with cold PBS and then were harvested using lysis buffer (20 mM Tris pH 7.5, 0.5 mM EDTA, 0.5 mM EGTA, 0.5% Triton X-100) with 1:1000 dilution of protease inhibitors (Sigma-Aldrich, Saint Louis, Mo.). Cell lysate was sonicated and centrifuged at 13,000 rpm for 30 minutes at 4° C. […] Western blots were detected by enhanced chemiluminescence detection reagents (Pierce, Rockford, Ill., USA).

caspase-3 = assay: CoCl2 chemical hypoxia in R28 cells, caspase-3 activation by Western blot; assay type: cell-based, rat
Description: (A) About 70% confluent retinal R28 cells were treated with 100, 200 and 500 μM CoCl2 for 24 h with or without the pre-treatment of PQ1 (10 μM, 40 min) in a cell culture chamber (5% CO2, room air, 37° C.). Caspase-3 activation was determined by Western blotting in whole cell homogenates (WCH). (B) HIF1α stabilization was measured in the nuclear extracts (NE) after treatment with 500 μM CoCl2 at different time intervals with or without the pretreatment of PQ1. […] Levels of Cx43 and phosphoCx43-Ser368 are measured in WCH. β-Actin is used as a loading control.
Approximately 70% confluent retinal R28 cells were pre-incubated with PQ1 (10 μM, 40 min), followed by CoCl2 treatments at 100, 200 and 500 μM for different time periods in a cell culture chamber (5% CO2, room air, 37° C.). Hypoxia induction was confirmed by testing the hypoxia-inducible factor 1-α (HIF1α) protein expression levels in nuclear extracts by Western blotting.
Western blot. Western blotting was performed as described previously. […]
Next, it was determined whether PQ1 inhibition of gap junctions could prevent retinal neurosensory R28 cells from apoptosis using a chemical (CoCl2)-induced ischemia system as our model. […]

Compound: COc1cc(NCCCN)c2nccc(C)c2c1Oc1cccc(C(F)(F)F)c1.O=C(O)CCC(=O)O [PQ1, 6-Methoxy-8-[(3-aminopropyl)amino]-4-methyl-5-(3-trifluoromethylphenyloxy) quinoline succinic acid]
- increase in GJIC (T47D cells [1]; FIG. 4, 24 hours): 20-50%
- effect on gap junction intercellular communication (T47D cells [1]; Table 1, 500 nM): Increase
- tight junction ion permeability by TEER (T47D cells [2]): no significant effect
- Cx26 expression (Cx26): no effect
- CoCl2-induced activation of caspase-3 (caspase-3; PQ1 10 μM 40 min pre-incubation, then 500 μM CoCl2 24 h): blocked the activation of caspase-3 substantially
- activation of caspase-3 (caspase-3; PQ1 alone): did not cause activation
